Test results published in patent publication US6610853B1, “N-(phenylsulfonyl)picolinamide derivatives, process for producing the same, and herbicide” (Kureha Kagaku Kogyo K.K., priority 2000, dated 2003).

How the values were obtained:
Assay in all cases: Test on herbicidal activity by foliar application
Assay type in all cases: in vivo
Conditions in all cases: foliar spray, 1 kg/ha, plants at 1-2 leaf stage in pots, evaluated 14 days after spraying
[1] = system: Abutilon theophrasti
Protocol: (§1) Test on Herbicidal Activity by Foliar Application: Herbicidal solutions of each test compounds, which were prepared by dissolving at predetermined concentrations such a wettable powder of the test compound as that described in the above Formulation Example, were sprayed at dosages of 1 kg/ha over foliar parts of Amaranthus retroflexus, Bidens pilosa, Sinapis arvensis, Stellaria media, Solanum nigrum, Abutilon theophrasti, Convolvulus arvensis, Matricaria chamomilla, Galium aparine, Veronica hederaefolia, and Setaria viridis (each test plant is 1-2 leaf stage) which were grown in pots. 14 days latter after spraying, its herbicidal activity was evaluated in accordance with the below-described system. Herbicidal Activity 1: less than 30% inhibition 2: 30% or more-50% inhibition 3: 50% or more-70% inhibition 4: 70% or more-90% inhibition 5: 90% or more inhibition

[2] = system: Amaranthus retroflexus
Protocol: as §1

[3] = system: Bidens pilosa
Protocol: as §1

[4] = system: Convolvulus arvensis
Protocol: as §1

[5] = system: Galium aparine
Protocol: as §1

[6] = system: Matricaria chamomilla
Protocol: as §1

[7] = system: Setaria viridis
Protocol: as §1

[8] = system: Sinapis arvensis
Protocol: as §1

[9] = system: Solanum nigrum
Protocol: as §1

[10] = system: Stellaria media
Protocol: as §1

[11] = system: Veronica hederaefolia
Protocol: as §1

COc1ccc(C(=O)NS(=O)(=O)c2ccccc2C(F)(F)F)nc1 [Compound I-054, N-[(2-Trifluoromethylphenyl)sulfonyl]-5-methoxy-2-pyridinecarboxamide]
Herbicidal activity, Abutilon theophrasti [1]: 2 (30% or more-50% inhibition)
Herbicidal activity, Amaranthus retroflexus [2]: 3 (50% or more-70% inhibition)
Herbicidal activity, Bidens pilosa [3]: 5 (90% or more inhibition)
Herbicidal activity, Convolvulus arvensis [4]: 3 (50% or more-70% inhibition)
Herbicidal activity, Galium aparine [5]: 4 (70% or more-90% inhibition)
Herbicidal activity, Matricaria chamomilla [6]: 5 (90% or more inhibition)
Herbicidal activity, Setaria viridis [7]: 5 (90% or more inhibition)
Herbicidal activity, Sinapis arvensis [8]: 5 (90% or more inhibition)
Herbicidal activity, Solanum nigrum [9]: 4 (70% or more-90% inhibition)
Herbicidal activity, Stellaria media [10]: 5 (90% or more inhibition)
Herbicidal activity, Veronica hederaefolia [11]: 4 (70% or more-90% inhibition)

COC(=O)c1ccccc1S(=O)(=O)NC(=O)c1cc(Cl)cc(OC)n1 [Compound I-221, 2-[[[(4-Chloro-6-methoxypyridin-2-yl)carbonyl]-amino]sulfonyl]benzoic Acid Methyl Ester]
Herbicidal activity, Abutilon theophrasti [1]: 4 (70% or more-90% inhibition)
Herbicidal activity, Amaranthus retroflexus [2]: 5 (90% or more inhibition)
Herbicidal activity, Bidens pilosa [3]: 4 (70% or more-90% inhibition)
Herbicidal activity, Convolvulus arvensis [4]: 4 (70% or more-90% inhibition)
Herbicidal activity, Galium aparine [5]: 5 (90% or more inhibition)
Herbicidal activity, Matricaria chamomilla [6]: 2 (30% or more-50% inhibition)
Herbicidal activity, Setaria viridis [7]: 3 (50% or more-70% inhibition)
Herbicidal activity, Sinapis arvensis [8]: 5 (90% or more inhibition)
Herbicidal activity, Solanum nigrum [9]: 5 (90% or more inhibition)
Herbicidal activity, Stellaria media [10]: 4 (70% or more-90% inhibition)
Herbicidal activity, Veronica hederaefolia [11]: 4 (70% or more-90% inhibition)

COC(=O)c1ccccc1S(=O)(=O)NC(=O)c1cccc(Cl)n1 [Compound I-231, 2-[[[(6-Chloropyridin-2-yl)carbonyl]amino]-sulfonyl]benzoic Acid Methyl Ester]
Herbicidal activity, Abutilon theophrasti [1]: 5 (90% or more inhibition)
Herbicidal activity, Amaranthus retroflexus [2]: 5 (90% or more inhibition)
Herbicidal activity, Bidens pilosa [3]: 5 (90% or more inhibition)
Herbicidal activity, Convolvulus arvensis [4]: 4 (70% or more-90% inhibition)
Herbicidal activity, Galium aparine [5]: 5 (90% or more inhibition)
Herbicidal activity, Matricaria chamomilla [6]: 5 (90% or more inhibition)
Herbicidal activity, Setaria viridis [7]: 5 (90% or more inhibition)
Herbicidal activity, Sinapis arvensis [8]: 5 (90% or more inhibition)
Herbicidal activity, Solanum nigrum [9]: 5 (90% or more inhibition)
Herbicidal activity, Stellaria media [10]: 5 (90% or more inhibition)
Herbicidal activity, Veronica hederaefolia [11]: 5 (90% or more inhibition)

COC(=O)c1ccccc1S(=O)(=O)NC(=O)c1ccc(OC)cn1 [Compound I-234, 2-[[[(5-Methoxypyridin-2-yl)carbonyl]amino]-sulfonyl]benzoic Acid Methyl Ester]
Herbicidal activity, Abutilon theophrasti [1]: 5 (90% or more inhibition)
Herbicidal activity, Amaranthus retroflexus [2]: 5 (90% or more inhibition)
Herbicidal activity, Bidens pilosa [3]: 5 (90% or more inhibition)
Herbicidal activity, Convolvulus arvensis [4]: 4 (70% or more-90% inhibition)
Herbicidal activity, Galium aparine [5]: 4 (70% or more-90% inhibition)
Herbicidal activity, Matricaria chamomilla [6]: 5 (90% or more inhibition)
Herbicidal activity, Setaria viridis [7]: 4 (70% or more-90% inhibition)
Herbicidal activity, Sinapis arvensis [8]: 5 (90% or more inhibition)
Herbicidal activity, Solanum nigrum [9]: 5 (90% or more inhibition)
Herbicidal activity, Stellaria media [10]: 5 (90% or more inhibition)
Herbicidal activity, Veronica hederaefolia [11]: 4 (70% or more-90% inhibition)

COC(=O)c1ccccc1S(=O)(=O)NC(=O)c1cc(OC)cc(C)n1 [Compound I-254, 2-[[[(4-Methoxy-6-methylpyridin-2-yl)carbonyl]-amino]sulfonyl]benzoic Acid Methyl Ester]
Herbicidal activity, Abutilon theophrasti [1]: 5 (90% or more inhibition)
Herbicidal activity, Amaranthus retroflexus [2]: 5 (90% or more inhibition)
Herbicidal activity, Bidens pilosa [3]: 5 (90% or more inhibition)
Herbicidal activity, Convolvulus arvensis [4]: 3 (50% or more-70% inhibition)
Herbicidal activity, Galium aparine [5]: 5 (90% or more inhibition)
Herbicidal activity, Matricaria chamomilla [6]: 3 (50% or more-70% inhibition)
Herbicidal activity, Setaria viridis [7]: 4 (70% or more-90% inhibition)
Herbicidal activity, Sinapis arvensis [8]: 5 (90% or more inhibition)
Herbicidal activity, Solanum nigrum [9]: 5 (90% or more inhibition)
Herbicidal activity, Stellaria media [10]: 5 (90% or more inhibition)
Herbicidal activity, Veronica hederaefolia [11]: 5 (90% or more inhibition)

COC(=O)c1ccccc1S(=O)(=O)NC(=O)c1cc(OC)cc(Cl)n1 [Compound I-255, 2-[[[(6-Chloro-4-methoxypyridin-2-yl)carbonyl]-amino]sulfonyl]benzoic Acid Methyl Ester]
Herbicidal activity, Abutilon theophrasti [1]: 5 (90% or more inhibition)
Herbicidal activity, Amaranthus retroflexus [2]: 4 (70% or more-90% inhibition)
Herbicidal activity, Bidens pilosa [3]: 5 (90% or more inhibition)
Herbicidal activity, Convolvulus arvensis [4]: 5 (90% or more inhibition)
Herbicidal activity, Galium aparine [5]: 5 (90% or more inhibition)
Herbicidal activity, Matricaria chamomilla [6]: 5 (90% or more inhibition)
Herbicidal activity, Setaria viridis [7]: 4 (70% or more-90% inhibition)
Herbicidal activity, Sinapis arvensis [8]: 5 (90% or more inhibition)
Herbicidal activity, Solanum nigrum [9]: 5 (90% or more inhibition)
Herbicidal activity, Stellaria media [10]: 5 (90% or more inhibition)
Herbicidal activity, Veronica hederaefolia [11]: 5 (90% or more inhibition)

COC(=O)c1ccccc1S(=O)(=O)NC(=O)c1ccc(OC)c(Cl)n1 [Compound I-258, 2-[[[(6-Chloro-5-methoxypyridin-2-yl)carbonyl]-amino]sulfonyl]benzoic Acid Methyl Ester]
Herbicidal activity, Abutilon theophrasti [1]: 5 (90% or more inhibition)
Herbicidal activity, Amaranthus retroflexus [2]: 5 (90% or more inhibition)
Herbicidal activity, Bidens pilosa [3]: 5 (90% or more inhibition)
Herbicidal activity, Convolvulus arvensis [4]: 5 (90% or more inhibition)
Herbicidal activity, Galium aparine [5]: 5 (90% or more inhibition)
Herbicidal activity, Matricaria chamomilla [6]: 5 (90% or more inhibition)
Herbicidal activity, Setaria viridis [7]: 5 (90% or more inhibition)
Herbicidal activity, Sinapis arvensis [8]: 5 (90% or more inhibition)
Herbicidal activity, Solanum nigrum [9]: 5 (90% or more inhibition)
Herbicidal activity, Stellaria media [10]: 5 (90% or more inhibition)
Herbicidal activity, Veronica hederaefolia [11]: 4 (70% or more-90% inhibition)

COC(=O)c1ccccc1S(=O)(=O)NC(=O)c1ccc(OC)c(OC)n1 [Compound I-259, 2-[[[(5,6-Dimethoxypyridin-2-yl)carbonyl]-amino]sulfonyl]benzoic Acid Methyl Ester]
Herbicidal activity, Abutilon theophrasti [1]: 5 (90% or more inhibition)
Herbicidal activity, Amaranthus retroflexus [2]: 5 (90% or more inhibition)
Herbicidal activity, Bidens pilosa [3]: 4 (70% or more-90% inhibition)
Herbicidal activity, Convolvulus arvensis [4]: 3 (50% or more-70% inhibition)
Herbicidal activity, Galium aparine [5]: 5 (90% or more inhibition)
Herbicidal activity, Matricaria chamomilla [6]: 4 (70% or more-90% inhibition)
Herbicidal activity, Setaria viridis [7]: 4 (70% or more-90% inhibition)
Herbicidal activity, Sinapis arvensis [8]: 5 (90% or more inhibition)
Herbicidal activity, Solanum nigrum [9]: 4 (70% or more-90% inhibition)
Herbicidal activity, Stellaria media [10]: 5 (90% or more inhibition)
Herbicidal activity, Veronica hederaefolia [11]: 4 (70% or more-90% inhibition)

COC(=O)c1ccccc1S(=O)(=O)NC(=O)c1ccc(OC)c(Br)n1 [Compound I-265, 2-[[[(6-Bromo-5-methoxypyridin-2-yl)carbonyl]-amino]sulfonyl]benzoic acid methyl ester]
Herbicidal activity, Abutilon theophrasti [1]: 5 (90% or more inhibition)
Herbicidal activity, Amaranthus retroflexus [2]: 5 (90% or more inhibition)
Herbicidal activity, Bidens pilosa [3]: 5 (90% or more inhibition)
Herbicidal activity, Convolvulus arvensis [4]: 3 (50% or more-70% inhibition)
Herbicidal activity, Galium aparine [5]: 4 (70% or more-90% inhibition)
Herbicidal activity, Matricaria chamomilla [6]: 5 (90% or more inhibition)
Herbicidal activity, Setaria viridis [7]: 4 (70% or more-90% inhibition)
Herbicidal activity, Sinapis arvensis [8]: 5 (90% or more inhibition)
Herbicidal activity, Solanum nigrum [9]: 5 (90% or more inhibition)
Herbicidal activity, Stellaria media [10]: 5 (90% or more inhibition)
Herbicidal activity, Veronica hederaefolia [11]: 3 (50% or more-70% inhibition)

COc1cc(Cl)nc(C(=O)NS(=O)(=O)c2cccc(Cl)c2Cl)c1 [Compound I-345, N-[(2,3-Dichlorophenyl)sulfonyl]-6-chloro-4-methoxypyridine-2-carboxamide]
Herbicidal activity, Abutilon theophrasti [1]: 2 (30% or more-50% inhibition)
Herbicidal activity, Amaranthus retroflexus [2]: 3 (50% or more-70% inhibition)
Herbicidal activity, Bidens pilosa [3]: 5 (90% or more inhibition)
Herbicidal activity, Convolvulus arvensis [4]: 5 (90% or more inhibition)
Herbicidal activity, Galium aparine [5]: 4 (70% or more-90% inhibition)
Herbicidal activity, Matricaria chamomilla [6]: 4 (70% or more-90% inhibition)
Herbicidal activity, Setaria viridis [7]: 2 (30% or more-50% inhibition)
Herbicidal activity, Sinapis arvensis [8]: 5 (90% or more inhibition)
Herbicidal activity, Solanum nigrum [9]: 5 (90% or more inhibition)
Herbicidal activity, Stellaria media [10]: 4 (70% or more-90% inhibition)
Herbicidal activity, Veronica hederaefolia [11]: 3 (50% or more-70% inhibition)
